For data set [1] the following is noted: volunteers injected subcutaneously with PPS; cited from earlier work.
Another data set has as its system MMP13 mRNA. The data set can be described thus: real-time RT-PCR for MMP13 mRNA in KOA osteocyte-like cultures. The class given is cell-based, human. Particulars: KOA donor osteocyte-like cultures, PPS 1 μg/mL + rhTNFα 1 ng/mL (FIG. 20). The text has this:
FIG. 20. The effect of PPS treatment on basal and TNFα-induced MMP13 expression in human KOA osteocyte-like cultures. Real-time RT-PCR analysis of MMP13 mRNA relative to the expression of 18S rRNA. Data are means+SD of triplicate real-time RT-PCR reactions. A) KOA1-MMP13:18S mRNA expression; and B) KOA2-MMP13:185 mRNA expression.
Cryopreserved cells from each donor (all at passage 0 or 1) were thawed and cultured for 10d in T75 cm^2 tissue culture flasks. Once confluent, cells were removed by collagenase/dispase digestion, washed by centrifugation, counted and adjusted to 5×10^5 cells/mL. Cells were then seeded into either 12-well tissue culture trays or into 8-well chamber slides, at 1×10^5 and 2×10^4 cells/well, respectively. […]
Following three days of pre-treatment of osteocyte-like cultures with PPS and a further 48 h treatment period, total RNA was isolated for the purposes of analysing gene expression using real-time RT-PCR. While the quality of the RNA isolated from all cultures appeared to be high, as adjudged by Nanodrop micro-spectrophotometry showing the ratio of absorbance at 260 nm/280 nm generally being between 1.9 and 2.0, there was a consistent inability to generate complementary DNA (cDNA) from any samples exposed to 5 or 50 μg/mL PPS, except in one or two samples. […]
For orientation: In qPCR the cycle at which signal appears reflects the starting amount.

The next data set concerns MMP13. The data set can be described thus: MMP13 immunostaining / confocal microscopy of KOA osteocyte-like cultures. The data set is classed as cell-based, human. Particulars: KOA2 cells, rhTNFα + PPS 50 μg/mL (FIG. 21). The method, then:
FIG. 21. The effect of PPS treatment on basal and TNFα-induced MMP13 expression in human KOA osteocyte-like cultures. Confocal microscopy imaging of immunostaining of KOA2 cells untreated stained with isotype control primary antibody or mouse anti-human anti-MMP13 antibody (top row), or treated with rhTNFα alone or rhTNFα+PPS (50 μg/mL) and stained for MMP13 (green staining). All nuclei are stained with DAPI (blue). A) Isotype IgG control; B) Untreated; anti-MMP13; C) rhTNF-α-treated; anti-MMP13; and D) rhTNFa+PPS50; anti-MMP13.
Cell seeded in 8-well chamber slides and differentiated for 28 days or freshly digested from bone were either untreated or treated with rhTNFα (1 ng/mL), PPS (50 μg/mL; ‘PPS50’) or PPS50+rhTNFα. Following differentiation, medium was removed and all wells rinsed with PBS (pH 7.4, Gibco) a total of three times. Cells were then fixed with 100 μL of Histochoice (Sigma-Aldrich) tissue fixative for 1 hour at room temperature. After fixation, wells were rinsed twice with distilled H2O and stored at 4° C. until staining. Cells were blocked with 50 μL of blocking buffer (5% v/v normal rabbit serum in 1×PBS) for 20 minutes at room temperature in a humid chamber. Cells were then rinsed with wash buffer (0.1% v/v normal rabbit serum in PBS) three times. […]

Take Sodium Pentosan Polysulfate [PPS]: in data set [1], the “plasma concentrations of PPS” value is 1000 to 3000 ng/mL. Further, in the data set with MMP13 mRNA, the “rhTNFα-induced MMP13 mRNA expression” value is listed as “strongly inhibited”. Besides, the “inhibition of rhTNFα-induced MMP13 at the protein level (immunostaining)” value with MMP13 is reported as “confirmed”.

The values are drawn from US11752169B2, “Treatment of pain with polysulfated polysaccharides” (PARADIGM BIOPHARMACEUTICALS LTD., priority 2018, dated 2023).
